One block for each compound: values may come before it.
Key:
A. calcoaceticus = experiment: Synergy of peptide and antibiotic, MIC and FIC (checkerboard); assay type: cell-based; conditions: Acinetobacter calcoaceticus, agent alone
Protocol: (§1) FICs are performed by checkerboard titrations of peptides in one dimension of a microtiter plate, and of antibiotics in the other dimension, for example. The FIC is calculated by looking at the impact of one antibiotic on the MIC of the other and vice versa. […] Preferably, an FIC of less than 0.5 is obtained for synergism. As used herein, FIC can be determined as follows: [formula]
(§2) Synergism is identified as an FIC of about ≦0.5.

X. maltophila = experiment: as above; assay type: cell-based; conditions: agent alone
Protocol: as §1, §2

E. cloacae = experiment: as above; assay type: cell-based; conditions: Enterobacter cloacae, agent alone
Protocol: as §1, §2

P. aeruginosa = experiment: microbe, parasite or virus in culture; conditions: agent alone
Protocol: as §1, §2

[1] = Dansyl polymyxin displacement assay; assay type: binding; conditions: Dansyl polymyxin displacement from LPS
Source text: In addition, the peptides of SEQ ID NO: 5-8 also bound effectively to LPS with high affinity based on Dansyl polymyxin displacement assays (Table 5).

E. coli ML 35 = experiment: Inner membrane permeabilization (β-galactosidase, ONPG); assay type: cell-based
Protocol: Inner membrane permeability was determined by measurement in E. coli ML 35 of β-galactosidase activity using ONPG as a substrate. Normally ONPG cannot pass across the cytoplasmic membrane to permit hydrolysis by the cytoplasmic enzyme β-galactosidase. However, cationic peptides, by permeabilizing the inner membrane, unmasks this enzyme leading to color development as ONP is released. […] Addition of citrate increased the lag time before the peptides were able to permeabilize the membranes. When the experiments were executed in cation adjusted media (CAMHB), the lag time was increased up to 30 minutes.

[2] = α helical content by CD spectra; assay type: physicochemical
Protocol: The α helical content of the peptides were measured in buffer, liposomes and 20% Hexafluoroisopropanol (HFPIP). The liposomes constituted of POPC alone or POPC PC and 30% POPG (Table 7).

Red Blood Cells = experiment: Red Blood Cell lysis; assay type: cell-based
[3] = A. calcoaceticus isolate 1, strain ATCC 23055
[4] = A. calcoaceticus isolate 3, strain 27
[5] = A. calcoaceticus isolate 4, strain 28
[6] = A. calcoaceticus isolate 5, strain 8220
[7] = A. calcoaceticus isolate 6, strain 8221
[8] = A. calcoaceticus isolate 7, strain 8222
[9] = A. calcoaceticus isolate 9, strain 8224
[10] = A. calcoaceticus isolate 10, strain 8225
[11] = A. calcoaceticus isolate 11, strain 8226
[12] = X. maltophila isolate 37, strain 3095
[13] = X. maltophila isolate 38, strain 7901
[14] = X. maltophila isolate 39, strain B3110.1
[15] = X. maltophila isolate 40, strain R1302-1
[16] = X. maltophila isolate 41, strain R4230
[17] = X. maltophila isolate 42, strain TF29-1
[18] = X. maltophila isolate 43, strain TF29-2
[19] = X. maltophila isolate 44, strain W6896-2
[20] = E. cloacae isolate 12, strain ATCC 13047
[21] = E. cloacae isolate 13, strain 37-1
[22] = E. cloacae isolate 14, strain 938-2
[23] = E. cloacae isolate 15, strain B5546
[24] = E. cloacae isolate 16, strain R4148
[25] = E. cloacae isolate 17, strain R4148-2
[26] = E. cloacae isolate 18, strain 3077
[27] = E. cloacae isolate 19, strain 3356
[28] = E. cloacae isolate 20, strain 14269
[29] = E. cloacae isolate 21, strain 14661
[30] = E. cloacae isolate 22, strain 18801
[31] = Pseudomonas aeruginosa, P. aeruginosa isolate 24, strain 34
[32] = Pseudomonas aeruginosa, P. aeruginosa isolate 25, strain 923-1
[33] = Pseudomonas aeruginosa, P. aeruginosa isolate 26, strain 3101
[34] = Pseudomonas aeruginosa, P. aeruginosa isolate 27, strain 14644
[35] = Pseudomonas aeruginosa, P. aeruginosa isolate 28, strain 15036
[36] = Pseudomonas aeruginosa, P. aeruginosa isolate 29, strain 15545
[37] = Pseudomonas aeruginosa, P. aeruginosa isolate 30, strain B3999-1
[38] = Pseudomonas aeruginosa, P. aeruginosa isolate 31, strain U7688-1
[39] = Pseudomonas aeruginosa, P. aeruginosa isolate 32, strain W2897-1

MIC (A. calcoaceticus; [3]): 8 µg/mL | MIC (A. calcoaceticus; [4]): 16 µg/mL | MIC (A. calcoaceticus; [5]): 4 µg/mL | MIC (A. calcoaceticus; [6]): 16 µg/mL | MIC (A. calcoaceticus; [7]): 16 µg/mL | MIC (A. calcoaceticus; [8]): 32 µg/mL | MIC (A. calcoaceticus; [9]): 256 µg/mL | MIC (A. calcoaceticus; [10]): 32 µg/mL | MIC (A. calcoaceticus; [11]): 32 µg/mL | MIC (A. calcoaceticus; A. calcoaceticus isolate 2, strain 23): 1020 µg/mL | MIC (X. maltophila; X. maltophila isolate 34, strain ATCC 13637): 1020 µg/mL | MIC (X. maltophila; X. maltophila isolate 36, strain 16): 1020 µg/mL | MIC (X. maltophila; [12]): 512 µg/mL | MIC (X. maltophila; [13]): 512 µg/mL | MIC (X. maltophila; [14]): 512 µg/mL | MIC (X. maltophila; [15]): 512 µg/mL | MIC (X. maltophila; [16]): 1020 µg/mL | MIC (X. maltophila; [17]): 1020 µg/mL | MIC (X. maltophila; [18]): 1020 µg/mL | MIC (X. maltophila; [19]): 1020 µg/mL | MIC (X. maltophila; X. maltophila isolate 45, strain W11291): 512 µg/mL | MIC (E. cloacae; [20]): 8 µg/mL | MIC (E. cloacae; [21]): 4 µg/mL | MIC (E. cloacae; [22]): 8 µg/mL | MIC (E. cloacae; [23]): 8 µg/mL | MIC (E. cloacae; [24]): 1020 µg/mL | MIC (E. cloacae; [25]): 1020 µg/mL | MIC (E. cloacae; [26]): 8 µg/mL | MIC (E. cloacae; [27]): 64 µg/mL | MIC (E. cloacae; [28]): 1020 µg/mL | MIC (E. cloacae; [29]): 16 µg/mL | MIC (E. cloacae; [30]): 4 µg/mL | MIC (P. aeruginosa; [31]): 1020 µg/mL | MIC (P. aeruginosa; [32]): 64 µg/mL | MIC (P. aeruginosa; [33]): 64 µg/mL | MIC (P. aeruginosa; [34]): 512 µg/mL | MIC (P. aeruginosa; [35]): 1020 µg/mL | MIC (P. aeruginosa; [36]): 512 µg/mL | MIC (P. aeruginosa; [37]): 512 µg/mL | MIC (P. aeruginosa; [38]): 512 µg/mL | MIC (P. aeruginosa; [39]): 64 µg/mL
Compound: CCN1CCN(C(=O)N[C@@H](C(=O)N[C@@H]2C(=O)N3[C@@H]2SC(C)(C)[C@@H]3C(=O)O)c2ccccc2)C(=O)C1=O [Piperacillin]

Compound: NC[C@H]1O[C@H](O[C@H]2[C@H](O)[C@@H](O[C@H]3O[C@H](CO)[C@@H](O)[C@H](N)[C@H]3O)[C@H](N)C[C@@H]2N)[C@H](N)C[C@@H]1O [Tobramycin]
MIC (A. calcoaceticus; [3]): 4 µg/mL | MIC (A. calcoaceticus; [4]): 1 µg/mL | MIC (A. calcoaceticus; [5]): 128 µg/mL | MIC (A. calcoaceticus; [6]): 4 µg/mL | MIC (A. calcoaceticus; [7]): 4 µg/mL | MIC (A. calcoaceticus; [8]): 4 µg/mL | MIC (A. calcoaceticus; A. calcoaceticus isolate 8, strain 8223): 4 µg/mL | MIC (A. calcoaceticus; [9]): 4 µg/mL | MIC (A. calcoaceticus; [10]): 4 µg/mL | MIC (A. calcoaceticus; [11]): 4 µg/mL | MIC (X. maltophila; X. maltophila isolate 35, strain 6): 4 µg/mL | MIC (X. maltophila; [12]): 32 µg/mL | MIC (X. maltophila; [13]): 32 µg/mL | MIC (X. maltophila; [14]): 32 µg/mL | MIC (X. maltophila; [15]): 32 µg/mL | MIC (X. maltophila; [16]): 16 µg/mL | MIC (X. maltophila; [17]): 2 µg/mL | MIC (X. maltophila; [18]): 2 µg/mL | MIC (X. maltophila; [19]): 16 µg/mL | MIC (E. cloacae; [20]): 1 µg/mL | MIC (E. cloacae; [21]): 1 µg/mL | MIC (E. cloacae; [22]): 2 µg/mL | MIC (E. cloacae; [23]): 2 µg/mL | MIC (E. cloacae; [24]): 1 µg/mL | MIC (E. cloacae; [25]): 1 µg/mL | MIC (E. cloacae; [26]): 1 µg/mL | MIC (E. cloacae; [27]): 1 µg/mL | MIC (E. cloacae; [28]): 1 µg/mL | MIC (E. cloacae; [29]): 1 µg/mL | MIC (E. cloacae; [30]): 1 µg/mL | MIC (P. aeruginosa; Pseudomonas aeruginosa, P. aeruginosa isolate 23, strain ATCC 27853): 1 µg/mL | MIC (P. aeruginosa; [31]): 64 µg/mL | MIC (P. aeruginosa; [32]): 1 µg/mL | MIC (P. aeruginosa; [33]): 1 µg/mL | MIC (P. aeruginosa; [34]): 2 µg/mL | MIC (P. aeruginosa; [35]): 1 µg/mL | MIC (P. aeruginosa; [36]): 2 µg/mL | MIC (P. aeruginosa; [37]): 2 µg/mL | MIC (P. aeruginosa; [38]): 1 µg/mL | MIC (P. aeruginosa; [39]): 1 µg/mL | MIC (P. aeruginosa; Pseudomonas aeruginosa, P. aeruginosa isolate 33, strain W5483-2): 1 µg/mL | MIC (P. aeruginosa; Table 33, P. aeruginosa isolate 23, strain ATCC 27853): 1 μg · mL^1 | MIC (P. aeruginosa; Table 33, P. aeruginosa isolate 24, strain 34): 64 μg · mL^1 | MIC (P. aeruginosa; Table 33, P. aeruginosa isolate 25, strain 923-1): 1 μg · mL^1 | MIC (P. aeruginosa; Table 33, P. aeruginosa isolate 26, strain 3101): 1 μg · mL^1 | MIC (P. aeruginosa; Table 33, P. aeruginosa isolate 27, strain 14644): 1 μg · mL^1 | MIC (P. aeruginosa; Table 33, P. aeruginosa isolate 28, strain 15036): 1 μg · mL^1 | MIC (P. aeruginosa; Table 33, P. aeruginosa isolate 29, strain 15545): 2 μg · mL^1 | MIC (P. aeruginosa; Table 33, P. aeruginosa isolate 30, strain B3999-1): 1 μg · mL^1 | MIC (P. aeruginosa; Table 33, P. aeruginosa isolate 31, strain U7688-1): 2 μg · mL^1 | MIC (P. aeruginosa; Table 33, P. aeruginosa isolate 32, strain W2897-1): 1 μg · mL^1 | MIC (P. aeruginosa; Table 33, P. aeruginosa isolate 33, strain W5483-2): 2 μg · mL^1

Compound: CC[C@H](C)[C@H](NC(=O)[C@H](CC(C)C)NC(=O)[C@H](C)NC(=O)[C@@H]1CCCN1C(=O)[C@H](CC(C)C)NC(=O)CNC(=O)[C@@H](NC(=O)[C@@H](NC(=O)[C@H](CC(C)C)NC(=O)[C@@H](NC(=O)[C@H](CCCCN)NC(=O)[C@H](CCCCN)NC(=O)[C@@H](NC(=O)[C@H](C)NC(=O)[C@@H](NC(=O)[C@@H](NC(=O)[C@H](CC(C)C)NC(=O)[C@H](CCCCN)NC(=O)[C@H](CCCCN)NC(=O)[C@@H](NC(=O)[C@H](Cc1ccccc1)NC(=O)[C@H](CCC(=O)O)NC(=O)[C@H](CCCCN)NC(=O)[C@H](Cc1c[nH]c2ccccc12)NC(=O)[C@@H](N)CCCCN)[C@@H](C)CC)[C@@H](C)O)[C@@H](C)O)C(C)C)C(C)C)[C@@H](C)O)[C@@H](C)O)C(=O)N[C@@H](CO)C(=O)O [compound 492]
Imax [1]: 48% | Lag Time (E. coli ML 35; inner membrane permeabilization, E. coli ML 35): 68 s | Rate of Hydrolysis (E. coli ML 35; inner membrane permeabilization, E. coli ML 35, ONPG): 0.23 ΔAU min^−1 | % α helicity ([2]; 20% HFIP): 43% | % α helicity ([2]; Buffer): 0% | % α helicity ([2]; POPC Liposomes): 42% | % α helicity ([2]; POPC/POPG Liposomes): 19% | RBC Lysis (Red Blood Cells): >55 µg/mL

Compound: H-KWKSFIKKLTSAAKKVVTTAKPLISS-OH [MBI 26]
effect of 5 mM Mg++ on inner membrane permeabilization (E. coli ML 35; 4 ug peptide, +5 mM Mg): large inhibitory effect | effect of 100 mM NaCl on inner membrane permeabilization (E. coli ML 35; 4 ug peptide, +100 mM NaCl): little effect | RBC Lysis (Red Blood Cells): >55 µg/mL

Reference: patent publication US6465429B1, “Antimicrobial cationic peptides” (priority 1995, dated 2002)
